According to article PMC11855827, “High-Throughput Screening of Five Compound Libraries for Anthelmintic Activity and Toxicity Leads to the Discovery of Two Flavonoid Compounds” (International Journal of Molecular Sciences, 2025):
Where “and” joins values, the source holds several entries; their conditions need not be identical. Identical values can stand only once. Like-named read-outs stand apart in the source and are kept apart here.

Tested on: C. elegans
[1] = Table S2, C. elegans SS assay, 110 μM, 0 h, averages of 4 data points
[2] = Table S2, C. elegans SS assay, 110 μM, 24 h, averages of 4 data points

| SMILES | Percentage of motility inhibition 0 h [1] | Percentage of motility inhibition 24 h [2] | Percentage of motility inhibition 0 h (110 µM) | Percentage of motility inhibition 24 h (110 µM) |
| --- | --- | --- | --- | --- |
| CC(=O)Oc1ccc([C@@H]2CC(=O)c3c(OC(C)=O)cc(OC(C)=O)cc3O2)cc1 [Naringenin triacetate] | 0% | 14% | – | – |
| C[C@@H]1O[C@@H](O[C@H]2[C@H](Oc3cc(O)c(C(=O)CCc4ccc(O)cc4)c(O)c3)O[C@H](CO)[C@@H](O)[C@@H]2O)[C@H](O)[C@H](O)[C@H]1O [Naringin Dihy drochalcone] | 14% | 1% | – | – |
| CS(=O)(=O)O.Cc1c(O)cccc1C(=O)N[C@@H](CSc1ccccc1)[C@H](O)CN1C[C@H]2CCCC[C@H]2C[C@H]1C(=O)NC(C)(C)C [Nelfinavir (Mesylate)] | 47% | 5% | – | – |
| N#C[C@@H](O[C@@H]1O[C@H](CO[C@@H]2O[C@H](CO)[C@@H](O)[C@H](O)[C@H]2O)[C@@H](O)[C@H](O)[C@H]1O)c1ccccc1 [Neoamygdalin] | 0% | 0% | – | – |
| COc1ccc(-c2cc(=O)c3c(O)cc(O[C@@H]4O[C@H](CO)[C@@H](O)[C@H](O)[C@H]4O[C@@H]4O[C@@H](C)[C@H](O)[C@@H](O)[C@H]4O)cc3o2)cc1O [Neodiosmin] | 14% | 6% | – | – |
| C[C@@H]1O[C@@H](O[C@H]2[C@H](Oc3cc(O)c4c(c3)O[C@H](c3ccc(O)c(O)c3)CC4=O)O[C@H](CO)[C@@H](O)[C@@H]2O)[C@H](O)[C@H](O)[C@H]1O [Neoeriocitrin] | 6% | 13% | – | – |
| COc1ccc([C@@H]2CC(=O)c3c(O)cc(O[C@@H]4O[C@H](CO)[C@@H](O)[C@H](O)[C@H]4O[C@@H]4O[C@@H](C)[C@H](O)[C@@H](O)[C@H]4O)cc3O2)cc1O [Neohesperidin] | 14% | 0% | – | – |
| C[C@@H]1O[C@@H](O[C@H]2C(=O)c3c(O)cc(O)cc3O[C@H]2c2ccc(O)c(O)c2)[C@H](O)[C@H](O)[C@H]1O [Neoisoastilbin] | 0% | 0% | – | – |
| O=C(/C=C/c1ccc(O)cc1)c1ccc(O[C@@H]2O[C@H](CO)[C@@H](O)[C@H](O)[C@H]2O)cc1O [Neoisoliquiritin] | 17% | 11% | – | – |
| O=C1C[C@@H](c2ccc(O)cc2)Oc2cc(O[C@@H]3O[C@H](CO)[C@@H](O)[C@H](O)[C@H]3O)ccc21 [Neoliquiritin] | 0% | 20% | – | – |
| O=c1c2cc(O[C@@H]3O[C@H](CO)[C@@H](O)[C@H](O)[C@H]3O)c(O)cc2oc2cc(O)c([C@@H]3O[C@H](CO)[C@@H](O)[C@H](O)[C@H]3O)c(O)c12 [Neomangiferin] | 7% | 17% | – | – |
| NC[C@@H]1O[C@H](O[C@H]2[C@@H](O)[C@H](O[C@@H]3[C@@H](O)[C@H](N)C[C@H](N)[C@H]3O[C@H]3O[C@H](CN)[C@@H](O)[C@H](O)[C@H]3N)O[C@@H]2CO)[C@H](N)[C@@H](O)[C@@H]1O.O=S(=O)(O)O [Neomycin (sulfate)] | 21% | 3% | – | – |
| C=CC(=C)CCCC(C)CCCC(C)CCCC(C)C (stereo not drawn) [Neophytadiene] | 3% | 6% | – | – |
| COc1c(O)cc2oc(-c3ccc(O)c(O)c3)cc(=O)c2c1O [Nepetin] | 4% | 17% | – | – |
| CCN[C@@H]1C[C@H](N)[C@@H](O[C@H]2OC(CN)=CC[C@H]2N)[C@H](O)[C@H]1O[C@H]1OC[C@](C)(O)[C@H](NC)[C@H]1O.CCN[C@@H]1C[C@H](N)[C@@H](O[C@H]2OC(CN)=CC[C@H]2N)[C@H](O)[C@H]1O[C@H]1OC[C@](C)(O)[C@H](NC)[C@H]1O.O=S(=O)(O)O.O=S(=O)(O)O.O=S(=O)(O)O.O=S(=O)(O)O.O=S(=O)(O)O [Netilmicin (sulfate)] | 0% | 1% | – | – |
| C[C@@H]1O[C@@H](OC[C@H]2O[C@@H](Oc3c(-c4ccc(O)cc4)oc4cc(O)cc(O)c4c3=O)[C@H](O)[C@@H](O)[C@@H]2O)[C@H](O)[C@H](O)[C@H]1O [Nicotiflorin] | 4% | 40% | – | – |
| NC(=O)c1ccc[n+]([O-])c1 [Nicotinamide N‐oxide] | – | – | 14% | 32% |

| SMILES | Percentage of motility inhibition 0 h [1] | Percentage of motility inhibition 24 h [2] | Percentage of motility inhibition 0 h (110 µM) | Percentage of motility inhibition 24 h (110 µM) |
| --- | --- | --- | --- | --- |
| NC(=O)c1ccc[n+]([C@@H]2O[C@H](CO)[C@@H](O)[C@H]2O)c1.[Cl-] [Nicotinamide riboside (chloride)] | 15% | 0% | – | – |
| NC(=O)c1cccnc1 [Nicotinamide] | – | 0% and 10% | – | – |
| O=C([O-])c1ccc[n+]([C@@H]2O[C@H](CO)[C@@H](O)[C@H]2O)c1 [Nicotinic acid riboside] | 5% | 0% | – | – |
| C[C@@H]1CC[C@]2(C(=O)O[C@@H]3O[C@H](CO)[C@@H](O)[C@H](O)[C@H]3O)CC[C@]3(C)C(=CC[C@@H]4[C@@]5(C)C[C@@H](O)[C@H](O)[C@@](C)(CO)[C@@H]5CC[C@]43C)[C@@H]2[C@]1(C)O [Niga-ichigoside F1] | 0% | 1% | – | – |
| COc1cc2c[n+](C)c3c4cc5c(cc4ccc3c2cc1OC)OCO5.[Cl-] [Nitidine (chloride)] | 0% | 7% | – | – |
| NC(=O)c1cc([N+](=O)[O-])cc([N+](=O)[O-])c1 [Nitromide] | 25% | 12% | – | – |
| CC(Cc1ccc(O)c(O)c1)C(C)Cc1ccc(O)c(O)c1 (stereo not drawn) [Nordihydroguaiaretic acid] | 8% | 21% | – | – |
| Cl.NCC(O)c1ccc(O)c(O)c1 (stereo not drawn) [Norepinephrine (hydrochloride)] | 23% and 12% | – | – | – |
| CC(C)(O)CCc1c(O)cc(O)c2c(=O)c(O)c(-c3ccc(O)cc3)oc12 [Noricaritin] | 42% | 5% | – | – |
| COc1cc2c(cc1O)C[C@@H]1NCCc3cc(OC)c(O)c-2c31 [Norisoboldine] | 0% | 0% | – | – |
| OC1C[C@H]2CC[C@@H](C1)N2 (stereo partly drawn) [Nortropine] | 12% | 11% | – | – |
| CC(C)=CCC[C@](C)(O[C@@H]1O[C@H](CO[C@@H]2O[C@H](CO)[C@@H](O)[C@H](O)[C@H]2O)[C@@H](O)[C@H](O)[C@H]1O)[C@H]1CC[C@]2(C)[C@@H]1[C@H](O)C[C@@H]1[C@@]3(C)CC[C@H](O[C@@H]4O[C@H](CO)[C@@H](O)[C@H](O)[C@H]4O[C@@H]4O[C@H](CO)[C@@H](O)[C@H](O)[C@H]4O[C@@H]4OC[C@@H](O)[C@H](O)[C@H]4O)C(C)(C)[C@@H]3CC[C@]12C [Notoginsenoside Fa] | 7% | 33% | – | – |
| CC(C)=CCC[C@](C)(O[C@@H]1O[C@H](CO[C@@H]2OC[C@@H](O)[C@H](O)[C@H]2O)[C@@H](O)[C@H](O)[C@H]1O)[C@H]1CC[C@]2(C)[C@@H]1[C@H](O)C[C@@H]1[C@@]3(C)CC[C@H](O[C@@H]4O[C@H](CO)[C@@H](O)[C@H](O)[C@H]4O[C@@H]4O[C@H](CO)[C@@H](O)[C@H](O)[C@H]4O[C@@H]4OC[C@@H](O)[C@H](O)[C@H]4O)C(C)(C)[C@@H]3CC[C@]12C [Notoginsenoside Fc] | 0% | 0% | – | – |
| CC(C)=CCC[C@@](C)(O)[C@H]1CC[C@]2(C)[C@@H]1[C@H](O)C[C@@H]1[C@@]3(C)CC[C@H](O[C@@H]4O[C@H](CO)[C@@H](O)[C@H](O)[C@H]4O[C@@H]4O[C@H](CO)[C@@H](O)[C@H](O)[C@H]4O[C@@H]4OC[C@@H](O)[C@H](O)[C@H]4O)C(C)(C)[C@@H]3CC[C@]12C [Notoginsenoside Ft1] | 14% | 3% | – | – |
| CC(C)=CCC[C@](C)(O[C@@H]1O[C@H](CO)[C@@H](O)[C@H](O)[C@H]1O)[C@H]1CC[C@]2(C)[C@@H]1[C@H](O)C[C@@H]1[C@@]3(C)CC[C@H](O)C(C)(C)[C@@H]3[C@@H](O[C@@H]3O[C@H](CO)[C@@H](O)[C@H](O)[C@H]3O[C@@H]3OC[C@@H](O)[C@H](O)[C@H]3O)C[C@]12C [Notoginsenoside R1] | 5% | 26% | – | – |
| CC(C)=CCC[C@](C)(O)[C@H]1CC[C@]2(C)[C@@H]1[C@H](O)C[C@@H]1[C@@]3(C)CC[C@H](O)C(C)(C)[C@@H]3[C@@H](O[C@@H]3O[C@H](CO)[C@@H](O)[C@H](O)[C@H]3O[C@@H]3OC[C@@H](O)[C@H](O)[C@H]3O)C[C@]12C [Notoginsenoside R2] | 19% | 9% | – | – |
| CO[C@@H]1[C@@H](OC(N)=O)[C@@H](O)[C@H](Oc2ccc3c([O-])c(NC(=O)c4ccc(O)c(CC=C(C)C)c4)c(=O)oc3c2C)OC1(C)C.[Na+] [Novobiocin (Sodium)] | 25% | 1% | – | – |
